In PubChem BioAssay (NCI) one finds TGI data, which are given here for seven compounds.

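Briefly, cells in 96-well plates were exposed to five compound concentrations for 48 h, and endpoints were estimated by linear interpolation. TGI is the concentration that stops growth completely.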

Holding throughout (assay): NCI-60 cell line screen, 48 h
Assay [1] relates to SK-MEL-5 melanoma.
Assay [2] relates to T-47D breast.
Assay [3] relates to BT-549 breast.
For assay [4], the system named is UO-31 renal.
Assay [5] has as its system SF-539 CNS.
Assay [6] has as its system MDA-MB-435.
In assay [7] the test system is RPMI-8226 leukemia.
For assay [8], the system named is UACC-62 melanoma.
Assay [9] relates to NCI/ADR-RES ovarian.
The test system of assay [10] is SNB-19 CNS.
Assay [11] deals with SK-OV-3 ovarian.
In assay [12] the test system is HT29 colon.
Assay [13] deals with SF-268 CNS.
Assay [14] deals with NCI-H460 lung.
The subject of assay [15] is MDA-MB-231 breast.
Assay [16] deals with OVCAR-5 ovarian.

For `O=S(=O)(C(=Ic1ccccc1)S(=O)(=O)C(F)(F)C(F)(F)C(F)(F)C(F)(F)F)C(F)(F)C(F)(F)C(F)(F)C(F)(F)F`, the TGI stood at 27.5 µM in assay [1]; 32.5 µM in [2]; 28.5 µM in assay [3]; 25.8 µM in [4]; 28.8 µM in assay [5]; 36.8 µM in [6]. For the same compound, the TGI in assay [7] amounted to 86.4 µM; in assay [8] it was 33.4 µM; in assay [9], 59.8 µM; in assay [10], 28.5 µM; in assay [11], 30.4 µM; in assay [12], 31.4 µM. Further, the TGI in [13] was 42.7 µM; in [14] it was 32.2 µM; in assay [15], 55.4 µM; in assay [16] it was 30.9 µM.

Consider `O=C(O)c1nc2cc(C(F)(F)F)ccc2nc1Nc1ccc(Cl)c(Cl)c1`, for which the TGI in assay [1] was determined as 52.6 µM; in [2], 36.8 µM; in [3], 27.5 µM; in assay [4] it was 27.6 µM; in assay [5], 23.7 µM; in assay [6], 18.6 µM. For the same compound, the TGI in [7] is 59 µM; in assay [8], 25 µM; in assay [9], 23.2 µM; in assay [10], 53.5 µM; in assay [11] it was 30.7 µM; in assay [12], 28.8 µM. Moreover, the TGI in [13] is 36.4 µM; in [14], 26.3 µM; in assay [15], 48.8 µM; in [16], 32 µM.

Take `COc1ccc(/C(CCl)=C(\Nc2ccccc2)c2ccc(OC)c(OC)c2)cc1OC`: the TGI in assay [1], in assay [2], in assay [3], in assay [4], in assay [5] and in [6] was above 100 µM throughout. For the same compound, the TGI in [7], in [8], in assay [9], in [10], in assay [11] and in assay [12] was above 100 µM throughout. Moreover, the TGI in [13], in assay [14], in assay [15] and in assay [16] was above 100 µM throughout.

As to `CN1CCC(CNC(=O)CCCCCCCCC(=O)NCC2(c3ccccc3)CCN(C)CC2)(c2ccccc2)CC1`, the TGI in [1] is above 100 µM; in assay [2], above 100 µM; in assay [3] it was above 100 µM; in assay [4] it was above 100 µM; in assay [5] it was 48.8 µM; in assay [6] it was above 100 µM. The TGI in assay [7], in [8], in [9], in assay [10], in [11] and in assay [12] was above 100 µM throughout. The TGI in [13] is 57.6 µM; in assay [14], above 100 µM; in assay [15] it was above 100 µM; in [16] it was above 100 µM.

On to `CC(C)(C)OC(=O)NC1CC=CCC1NC(=O)OC(C)(C)C` (configuration not stated), for which the TGI in assay [1], in assay [2], in [3], in [4], in assay [5] and in assay [6] was above 100 µM throughout. The TGI in [7], in assay [8], in [9], in assay [10], in assay [11] and in assay [12] was above 100 µM each time. Further, the TGI in assay [13], in assay [14], in assay [15] and in assay [16] was above 100 µM throughout.

Take `C#CCn1c(=O)ccn(/C(=C\C(=O)OCC)C(=O)OCC)c1=O`: the TGI came to 46.1 µM in [1]; 12.7 µM in [2]; 25.4 µM in assay [3]; 26.4 µM in assay [4]; 4.64 µM in [5]; 22.9 µM in assay [6]. The TGI in assay [7] was above 23.9 µM; in assay [8], 28.3 µM; in assay [9], 33.3 µM; in assay [10] it was 36.4 µM; in assay [11], above 59.9 µM; in assay [12], 4.4 µM. The TGI in [13] turned out to be 42.4 µM; in assay [14], 7.76 µM; in [15], 41.9 µM; in assay [16], 30.9 µM.

On to `CCC(CS(=O)(=O)O)[N+](=O)[O-]` (configuration not stated), for which the TGI in [1], in assay [2], in assay [3], in assay [4], in assay [5] and in assay [6] was above 100 µM in each case. Besides, the TGI in assay [7], in assay [8], in assay [9], in assay [10], in [11] and in assay [12] was above 100 µM in each case. The TGI in assay [13], in assay [14], in [15] and in assay [16] was above 100 µM throughout.
